Test results reported in patent publication US8927500B2, “Peptidomimetic macrocycles” (Aileron Therapeutics, Inc., priority 2012, dated 2015).
Where a SMILES comes first, the peptide text is derived from it. Bridges are numbered along the chain shown (N, C = ends). [ ]: non-standard residue; d: D form. R8 = C=CCCCCCC[C@@](C)(N)C(=O)O; Cba = N[C@@H](CC1CCC1)C(=O)O; hLeu = CC(C)CC[C@H](N)C(=O)O; S5 = C=CCCC[C@](C)(N)C(=O)O; Nle = CCCC[C@H](N)C(=O)O

What was measured:
MDMX = target: T1, MDMX (Homo sapiens, UniProt O15151); assay: Competitive fluorescence polarization assay for MDMX; assay type: binding; details: competitive FP assay; for IC50: read-out: IC50 (MDMX); for Ki: read-out: Ki (MDMX)
T1 sequence (O15151 1-125): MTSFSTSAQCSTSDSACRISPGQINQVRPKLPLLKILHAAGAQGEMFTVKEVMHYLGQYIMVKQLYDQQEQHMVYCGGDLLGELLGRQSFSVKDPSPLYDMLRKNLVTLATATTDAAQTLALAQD

MDM2 = MDM2 (Homo sapiens, UniProt Q00987); assay: Competitive fluorescence polarization assay for MDM2; assay type: binding; details: competitive FP assay, MDM2; for IC50: read-out: IC50 (MDM2); for Ki: read-out: Ki (MDM2)
MDM2, sequence (Q00987 1-125): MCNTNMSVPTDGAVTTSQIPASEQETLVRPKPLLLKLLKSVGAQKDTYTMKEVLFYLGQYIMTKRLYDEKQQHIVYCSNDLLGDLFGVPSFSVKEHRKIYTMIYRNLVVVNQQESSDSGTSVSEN

Compound | IC50 (MDMX) | Ki (MDMX) | IC50 (MDM2) | Ki (MDM2)
CCCC[C@H](NC(=O)[C@H](Cc1c[nH]c2ccccc12)NC(=O)[C@H](C)NC(=O)[C@]1(C)CCCC=CCCCCCC[C@@](C)(NC(=O)[C@H](Cc2ccccc2)NC(=O)[C@@H](NC(=O)[C@H](CC(C)C)NC(C)=O)[C@@H](C)O)C(=O)N[C@@H](CCC(=O)O)C(=O)N[C@@H](Cc2ccc(O)cc2)C(=O)N[C@@H](Cc2c[nH]c3ccccc23)C(=O)N[C@@H](C)C(=O)N[C@@H](CCC(N)=O)C(=O)N[C@@H](CC2CCC2)C(=O)N1)C(=O)N[C@H](C)C(N)=O [compound 271] (Ac-LTF[R8]EYWAQ[Cba][S5]AW[Nle][dA]-NH2; staple 4-11) | 10 to 100 nM | < 10 nM | < 10 nM | < 10 nM
CCCC[C@H](NC(=O)[C@H](Cc1c[nH]c2ccccc12)NC(=O)[C@H](C)NC(=O)[C@]1(C)CCCC=CCCCCCC[C@@](C)(NC(=O)[C@H](Cc2ccccc2)NC(=O)[C@@H](NC(=O)[C@H](CCC(=O)O)NC(C)=O)[C@@H](C)O)C(=O)N[C@@H](CCC(=O)O)C(=O)N[C@@H](Cc2ccc(O)cc2)C(=O)N[C@@H](Cc2c[nH]c3ccccc23)C(=O)N[C@@H](C)C(=O)N[C@@H](CCC(N)=O)C(=O)N[C@@H](CC2CCC2)C(=O)N1)C(=O)N[C@H](C)C(N)=O [compound 272] (Ac-ETF[R8]EYWAQ[Cba][S5]AW[Nle][dA]-NH2; staple 4-11) | 10 to 100 nM | < 10 nM | < 10 nM | < 10 nM
CCCC[C@H](NC(=O)[C@H](Cc1c[nH]c2ccccc12)NC(=O)[C@H](C)NC(=O)[C@]1(C)CCCC=CCCCCCC[C@@](C)(NC(=O)[C@H](Cc2ccccc2)NC(=O)[C@@H](NC(=O)[C@H](CCC(=O)O)NC(C)=O)[C@@H](C)O)C(=O)N[C@@H](C)C(=O)N[C@@H](Cc2ccc(O)cc2)C(=O)N[C@@H](Cc2c[nH]c3ccccc23)C(=O)N[C@@H](C)C(=O)N[C@@H](CCC(N)=O)C(=O)N[C@@H](CC(C)C)C(=O)N1)C(=O)N[C@H](C)C(N)=O [compound 276] (Ac-ETF[R8]AYWAQL[S5]AW[Nle][dA]-NH2; staple 4-11) | 10 to 100 nM | < 10 nM | 10 to 100 nM | < 10 nM
CCCC[C@H](NC(=O)[C@H](Cc1c[nH]c2ccccc12)NC(=O)[C@H](C)NC(=O)[C@]1(C)CCCC=CCCCCCC[C@@](C)(NC(=O)[C@H](Cc2ccccc2)NC(=O)[C@@H](NC(=O)[C@H](CC(C)C)NC(C)=O)[C@@H](C)O)C(=O)N[C@@H](CCC(=O)O)C(=O)N[C@@H](Cc2ccc(O)cc2)C(=O)N[C@@H](Cc2c[nH]c3ccccc23)C(=O)N[C@@H](C)C(=O)N[C@@H](CCC(N)=O)C(=O)N[C@@H](CC(C)C)C(=O)N1)C(=O)N[C@H](C)C(N)=O [compound 277] (Ac-LTF[R8]EYWAQL[S5]AW[Nle][dA]-NH2; staple 4-11) | 10 to 100 nM | < 10 nM | 10 to 100 nM | < 10 nM
CCCC[C@H](NC(=O)[C@H](Cc1c[nH]c2ccccc12)NC(=O)[C@H](C)NC(=O)[C@]1(C)CCCC=CCCCCCC[C@@](C)(NC(=O)[C@H](Cc2ccccc2)NC(=O)[C@@H](NC(=O)[C@H](CCC(=O)O)NC(C)=O)[C@@H](C)O)C(=O)N[C@@H](CCC(=O)O)C(=O)N[C@@H](Cc2ccc(O)cc2)C(=O)N[C@@H](Cc2c[nH]c3ccccc23)C(=O)N[C@@H](C)C(=O)N[C@@H](CCC(N)=O)C(=O)N[C@@H](CC(C)C)C(=O)N1)C(=O)N[C@H](C)C(N)=O [compound 278] (Ac-ETF[R8]EYWAQL[S5]AW[Nle][dA]-NH2; staple 4-11) | 10 to 100 nM | < 10 nM | 10 to 100 nM | < 10 nM
CCCC[C@H](NC(=O)[C@H](C)NC(=O)[C@H](C)NC(=O)[C@]1(C)CCCC=CCCCCCC[C@@](C)(NC(=O)[C@H](Cc2ccccc2)NC(=O)[C@@H](NC(=O)[C@H](CC(C)C)NC(C)=O)[C@@H](C)O)C(=O)N[C@@H](C)C(=O)N[C@@H](Cc2ccc(O)cc2)C(=O)N[C@@H](Cc2c[nH]c3ccccc23)C(=O)N[C@@H](CO)C(=O)N[C@@H](CCC(N)=O)C(=O)N[C@@H](CC(C)C)C(=O)N1)C(=O)N[C@@H](C)C(N)=O [compound 306] (Ac-LTF[R8]AYWSQL[S5]AA[Nle]A-NH2; staple 4-11) | 100 to 1000 nM | 10 to 100 nM | < 10 nM | < 10 nM
CCCC[C@H](NC(=O)[C@H](C)NC(=O)[C@H](C)NC(=O)[C@]1(C)CCCC=CCCCCCC[C@@](C)(NC(=O)[C@H](Cc2ccccc2)NC(=O)[C@@H](NC(=O)[C@H](CC(C)C)NC(C)=O)[C@@H](C)O)C(=O)N[C@@H](CCC(=O)O)C(=O)N[C@@H](Cc2ccc(O)cc2)C(=O)N[C@@H](Cc2c[nH]c3ccccc23)C(=O)N[C@@H](C)C(=O)N[C@@H](CCC(N)=O)C(=O)N[C@@H](CCC(C)C)C(=O)N1)C(=O)N[C@@H](C)C(N)=O [compound 318] (Ac-LTF[R8]EYWAQ[hLeu][S5]AA[Nle]A-NH2; staple 4-11) | 100 to 1000 nM | 10 to 100 nM | 10 to 100 nM | 10 to 100 nM
CCCC[C@H](NC(=O)[C@H](C)NC(=O)[C@H](C)NC(=O)[C@]1(C)CCCC=CCCCCCC[C@@](C)(NC(=O)[C@H](Cc2ccccc2)NC(=O)[C@@H](NC(=O)[C@H](C)NC(=O)[C@H](C)NC(C)=O)[C@@H](C)O)C(=O)N[C@@H](C)C(=O)N[C@@H](Cc2ccc(O)cc2)C(=O)N[C@@H](Cc2c[nH]c3ccccc23)C(=O)N[C@@H](C)C(=O)N[C@@H](CCC(N)=O)C(=O)N[C@@H](CC(C)C)C(=O)N1)C(=O)N[C@@H](C)C(N)=O [compound 319] (Ac-AATF[R8]AYWAQL[S5]AA[Nle]A-NH2; staple 5-12) | 100 to 1000 nM | 100 to 1000 nM | 10 to 100 nM | 10 to 100 nM
CCCC[C@H](NC(=O)[C@H](C)NC(=O)[C@H](C)NC(=O)[C@]1(C)CCCC=CCCCCCC[C@@](C)(NC(=O)[C@H](Cc2ccccc2)NC(=O)[C@@H](NC(=O)[C@H](CC(C)C)NC(C)=O)[C@@H](C)O)C(=O)N[C@@H](C)C(=O)N[C@@H](Cc2ccc(O)cc2)C(=O)N[C@@H](Cc2c[nH]c3ccccc23)C(=O)N[C@@H](C)C(=O)N[C@@H](CCC(N)=O)C(=O)N[C@@H](CC(C)C)C(=O)N1)C(=O)N[C@@H](C)C(=O)N[C@@H](C)C(N)=O [compound 320] | 100 to 1000 nM | 100 to 1000 nM | 10 to 100 nM | 10 to 100 nM
CCCC[C@H](NC(=O)[C@H](C)NC(=O)[C@H](C)NC(=O)[C@]1(C)CCCC=CCCCCCC[C@@](C)(NC(=O)[C@H](Cc2ccccc2)NC(=O)[C@@H](NC(=O)[C@H](CC(C)C)NC(=O)[C@H](C)NC(C)=O)[C@@H](C)O)C(=O)N[C@@H](C)C(=O)N[C@@H](Cc2ccc(O)cc2)C(=O)N[C@@H](Cc2c[nH]c3ccccc23)C(=O)N[C@@H](C)C(=O)N[C@@H](CCC(N)=O)C(=O)N[C@@H](CC(C)C)C(=O)N1)C(=O)N[C@@H](C)C(=O)N[C@@H](C)C(N)=O [compound 321] | 100 to 1000 nM | 10 to 100 nM | 10 to 100 nM | < 10 nM
CCCC[C@H](NC(=O)[C@H](C)NC(=O)[C@H](C)NC(=O)[C@]1(C)CCCC=CCCCCCC[C@@](C)(NC(=O)[C@H](Cc2ccccc2)NC(=O)[C@@H](NC(=O)[C@H](CC(C)C)NC(C)=O)[C@@H](C)O)C(=O)N[C@@H](C)C(=O)N[C@@H](Cc2ccc(O)cc2)C(=O)N[C@@H](Cc2c[nH]c3ccccc23)C(=O)N[C@@H](C)C(=O)N[C@@H](CCC(N)=O)C(=O)N[C@@H](CC2CCC2)C(=O)N1)C(=O)N[C@@H](C)C(=O)N[C@@H](C)C(N)=O [compound 322] (Ac-LTF[R8]AYWAQ[Cba][S5]AA[Nle]AA-NH2; staple 4-11) | 100 to 1000 nM | 100 to 1000 nM | 10 to 100 nM | 10 to 100 nM
